In brackets after ≈: the same amount, converted by molar mass. Read-outs that look alike come from different tables or passages of the source.
What was measured:
Solubility in PBS = type: physicochemical
Outline: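 HPLC quantitation of peptide remaining in the PBS supernatant after ultracentrifugation, referenced to a 50 μM solution in DMSO.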

[1] = molecular target: T1, full-length beta-Catenin (Uniprot ID P35222) (Homo sapiens, UniProt P35222); assay: Fluorescence polarization IC50 (beta-catenin / 5FAM-TCF4 10-53 competition); type: binding; conditions: read-out: beta-Catenin FP IC50
T1 construct: 10 nM full-length beta-Catenin (Uniprot ID P35222)
T1 sequence (P35222 1-781): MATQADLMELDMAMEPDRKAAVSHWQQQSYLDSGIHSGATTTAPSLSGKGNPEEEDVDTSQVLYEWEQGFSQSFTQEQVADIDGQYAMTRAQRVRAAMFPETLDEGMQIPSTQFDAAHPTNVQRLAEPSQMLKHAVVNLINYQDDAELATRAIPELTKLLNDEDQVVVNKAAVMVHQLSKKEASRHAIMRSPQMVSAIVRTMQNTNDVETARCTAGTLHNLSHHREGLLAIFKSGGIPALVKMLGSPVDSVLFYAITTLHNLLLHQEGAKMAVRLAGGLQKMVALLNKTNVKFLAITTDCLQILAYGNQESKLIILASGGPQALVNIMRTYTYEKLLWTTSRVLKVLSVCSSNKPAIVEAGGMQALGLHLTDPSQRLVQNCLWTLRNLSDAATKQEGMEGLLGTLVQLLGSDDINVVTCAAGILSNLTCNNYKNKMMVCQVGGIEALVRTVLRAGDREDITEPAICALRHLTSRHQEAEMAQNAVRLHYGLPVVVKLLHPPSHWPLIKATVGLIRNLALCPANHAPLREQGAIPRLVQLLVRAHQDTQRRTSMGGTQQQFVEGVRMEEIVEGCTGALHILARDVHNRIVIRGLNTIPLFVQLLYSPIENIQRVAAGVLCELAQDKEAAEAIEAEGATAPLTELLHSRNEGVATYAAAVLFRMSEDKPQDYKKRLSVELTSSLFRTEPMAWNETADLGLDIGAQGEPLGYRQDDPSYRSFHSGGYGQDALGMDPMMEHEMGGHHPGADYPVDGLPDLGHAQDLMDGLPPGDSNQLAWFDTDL

[2] = molecular target: T2, beta-catenin/TCF4 engagement (Homo sapiens, UniProt P35222); assay: Nano-BRET target engagement assay (B-cat-Halo & TCF4-Luc in HEK293 cells); type: cell-based
T2 construct: expressed in transfected cells; host or cells: HEK293
T2 sequence (P35222 1-781): T1 sequence (P35222 1-781)

CHI Log D procedure = type: physicochemical

solubility at 15 min (Solubility in PBS; Solubility (uM)) | IC50 [1] | IC50 ([2]; read-out: NanoBRET Abs IC50) | chromatographic logD (CHI Log D procedure; pH 7.4, CHI Log D) | Solubility (Solubility in PBS; Solubility (uM)) | IC50 ([2]; read-out: NanoBRET IC50) | Structure (SMILES) | Solubility (Solubility in PBS) | chromatographic logD (CHI Log D procedure; pH 7.4)
30 µM (≈ 71.1 µg/mL) | 22 nM | > 20000 nM | 1.45 |  |  | COCCOCCOCCOCCOCCOCCOCCOCCC(=O)NCCCC[C@@H]1NC(=O)[C@H](C)NC(=O)[C@H](CC(=O)O)NC(=O)[C@H](CC(=O)O)NC(=O)C2(CCCC=CCCCOC(=O)N3CC[C@@](C(=O)N[C@@H](Cc4ccsc4)C(=O)N[C@@H](Cc4csc5ccccc45)C(=O)N[C@@H](CCC(N)=O)C(N)=O)(C3)NC(=O)[C@H](CC(N)=O)NC(=O)[C@H](Cc3ccccc3)NC1=O)CCCC=CC[C@]1(CCCN1C(C)=O)C(=O)N[C@@H](CC(=O)O)C(=O)N[C@@H](CC(C)(C)C)C(=O)N2 (stereo partly drawn) [I-896, Ac-PL3-Asp-Npg-B5-Asp-Asp-Ala-[mPEG8]Lys-Phe-Asn-PyrS2-3Thi-BztA-Gln-NH2] |  | 
 | 16 nM | > 20000 nM | 1.65 | 43 µM (≈ 88 µg/mL) |  | CCCC(=O)NCCCC[C@@H]1NC(=O)[C@H](C)NC(=O)[C@H](CC(=O)O)NC(=O)[C@H](CC(=O)O)NC(=O)C2(CCCC=CCCCOC(=O)N3CC[C@@](C(=O)N[C@@H](Cc4ccsc4)C(=O)N[C@@H](Cc4csc5ccccc45)C(=O)N[C@@H](CCC(N)=O)C(N)=O)(C3)NC(=O)[C@H](CC(N)=O)NC(=O)[C@H](Cc3ccccc3)NC1=O)CCCC=CC[C@]1(CCCN1C(C)=O)C(=O)N[C@@H](CC(=O)O)C(=O)N[C@@H](CC(C)(C)C)C(=O)N2 (stereo partly drawn) [I-897, Ac-PL3-Asp-Npg-B5-Asp-Asp-Ala-[Bua]Lys-Phe-Asn-PyrS2-3Thi-BztA-Gln-NH2] |  | 
 | 16 nM | > 20000 nM | 2.2 | 42 µM (≈ 88.3 µg/mL) |  | CCCCCCCC(=O)NCCCC[C@@H]1NC(=O)[C@H](C)NC(=O)[C@H](CC(=O)O)NC(=O)[C@H](CC(=O)O)NC(=O)C2(CCCC=CCCCOC(=O)N3CC[C@@](C(=O)N[C@@H](Cc4ccsc4)C(=O)N[C@@H](Cc4csc5ccccc45)C(=O)N[C@@H](CCC(N)=O)C(N)=O)(C3)NC(=O)[C@H](CC(N)=O)NC(=O)[C@H](Cc3ccccc3)NC1=O)CCCC=CC[C@]1(CCCN1C(C)=O)C(=O)N[C@@H](CC(=O)O)C(=O)N[C@@H](CC(C)(C)C)C(=O)N2 (stereo partly drawn) [I-898, Ac-PL3-Asp-Npg-B5-Asp-Asp-Ala-[Oct]Lys-Phe-Asn-PyrS2-3Thi-BztA-Gln-NH2] |  | 
 | 28 nM | > 20000 nM | 2.26 | 40 µM (≈ 85.5 µg/mL) |  | CC(=O)N1CCC[C@]12CC=CCCCC1(CCCC=CCCCOC(=O)N3CC[C@@](C(=O)N[C@@H](Cc4ccsc4)C(=O)N[C@@H](Cc4csc5ccccc45)C(=O)N[C@@H](CCC(N)=O)C(N)=O)(C3)NC(=O)[C@H](CC(N)=O)NC(=O)[C@H](Cc3ccccc3)NC(=O)[C@H](CCCCNC(=O)C34CC5CC(CC(C5)C3)C4)NC(=O)[C@H](C)NC(=O)[C@H](CC(=O)O)NC(=O)[C@H](CC(=O)O)NC1=O)NC(=O)[C@H](CC(C)(C)C)NC(=O)[C@H](CC(=O)O)NC2=O (stereo partly drawn) [I-899, Ac-PL3-Asp-Npg-B5-Asp-Asp-Ala-[AdamantC]Lys-Phe-Asn-PyrS2-3Thi-BztA-Gln-NH2] |  | 
 | 33 nM | > 20000 nM | 2.74 | 41 µM (≈ 89.4 µg/mL) |  | CC(=O)N1CCC[C@]12CC=CCCCC1(CCCC=CCCCOC(=O)N3CC[C@@](C(=O)N[C@@H](Cc4ccsc4)C(=O)N[C@@H](Cc4csc5ccccc45)C(=O)N[C@@H](CCC(N)=O)C(N)=O)(C3)NC(=O)[C@H](CC(N)=O)NC(=O)[C@H](Cc3ccccc3)NC(=O)[C@H](CCCCNC(=O)C34CC5(C)CC(C)(CC(C)(C5)C3)C4)NC(=O)[C@H](C)NC(=O)[C@H](CC(=O)O)NC(=O)[C@H](CC(=O)O)NC1=O)NC(=O)[C@H](CC(C)(C)C)NC(=O)[C@H](CC(=O)O)NC2=O (stereo partly drawn) [I-900, Ac-PL3-Asp-Npg-B5-Asp-Asp-Ala-[Me3AdamantC]Lys-Phe-Asn-PyrS2-3Thi-BztA-Gln-NH2] |  | 
 | 33 nM | 7800 nM | 2.38 | 43 µM (≈ 95.8 µg/mL) |  | CC(=O)N1CCC[C@]12CC=CCCCC1(CCCC=CCCCOC(=O)N3CC[C@@](C(=O)N[C@@H](Cc4ccsc4)C(=O)N[C@@H](Cc4csc5ccccc45)C(=O)N[C@@H](CCC(N)=O)C(=O)N[C@@H](CCCCNC(=O)CCc4cccc5ccccc45)C(N)=O)(C3)NC(=O)[C@H](CC(N)=O)NC(=O)[C@H](Cc3ccccc3)NC(=O)[C@H](C)NC(=O)[C@H](C)NC(=O)[C@H](CC(=O)O)NC(=O)[C@H](CC(=O)O)NC1=O)NC(=O)[C@H](CC(C)(C)C)NC(=O)[C@H](CC(=O)O)NC2=O (stereo partly drawn) [I-903, Ac-PL3-Asp-Npg-B5-Asp-Asp-Ala-Ala-Phe-Asn-PyrS2-3Thi-BztA-Gln-[1NapPr]Lys-NH2] |  | 
46 µM (≈ 101 µg/mL) | 8 nM |  | 1.75 |  | > 20000 nM | CC(=O)N1CCC[C@]12CC=CCCCC1(CCCC=CCCCOC(=O)N3CC[C@@](C(=O)N[C@@H](Cc4ccsc4)C(=O)N[C@@H](Cc4csc5ccccc45)C(=O)N[C@@H](CCC(N)=O)C(=O)N[C@@H](CCCCNC(=O)CN4CCN(C)CC4)C(N)=O)(C3)NC(=O)[C@H](CC(N)=O)NC(=O)[C@H](Cc3ccccc3)NC(=O)[C@H](C)NC(=O)[C@H](C)NC(=O)[C@H](CC(=O)O)NC(=O)[C@H](CC(=O)O)NC1=O)NC(=O)[C@H](CC(C)(C)C)NC(=O)[C@H](CC(=O)O)NC2=O (stereo partly drawn) [I-906, Ac-PL3-Asp-Npg-B5-Asp-Asp-Ala-Ala-Phe-Asn-PyrS2-3Thi-BztA-Gln-MePipAc Lys-NH2] |  | 
 | 9 nM | 27800 nM | 1.8 | 20 µM (≈ 45.1 µg/mL) |  | CC(=O)N1CCC[C@]12CC=CCCCC1(CCCC=CCCCOC(=O)N3CC[C@@](C(=O)N[C@@H](Cc4ccsc4)C(=O)N[C@@H](Cc4csc5ccccc45)C(=O)N[C@@H](CCC(N)=O)C(=O)N[C@@H](CCCCNC(=O)C4CCN(C5CCN(C)CC5)CC4)C(N)=O)(C3)NC(=O)[C@H](CC(N)=O)NC(=O)[C@H](Cc3ccccc3)NC(=O)[C@H](C)NC(=O)[C@H](C)NC(=O)[C@H](CC(=O)O)NC(=O)[C@H](CC(=O)O)NC1=O)NC(=O)[C@H](CC(C)(C)C)NC(=O)[C@H](CC(=O)O)NC2=O (stereo partly drawn) [I-907, Ac-PL3-Asp-Npg-B5-Asp-Asp-Ala-Ala-Phe-Asn-PyrS2-3Thi-BztA-Gln-[MeBipipAc]Lys-NH2] |  | 
 | 10 nM | 26000 nM | 1.82 | 44 µM (≈ 99.6 µg/mL) |  | CC(=O)N1CCC[C@]12CC=CCCCC1(CCCC=CCCCOC(=O)N3CC[C@@](C(=O)N[C@@H](Cc4ccsc4)C(=O)N[C@@H](Cc4csc5ccccc45)C(=O)N[C@@H](CCC(N)=O)C(=O)N[C@@H](CCCCNC(=O)c4ccc(CN5CCN(C)CC5)cc4)C(N)=O)(C3)NC(=O)[C@H](CC(N)=O)NC(=O)[C@H](Cc3ccccc3)NC(=O)[C@H](C)NC(=O)[C@H](C)NC(=O)[C@H](CC(=O)O)NC(=O)[C@H](CC(=O)O)NC1=O)NC(=O)[C@H](CC(C)(C)C)NC(=O)[C@H](CC(=O)O)NC2=O (stereo partly drawn) [I-908, Ac-PL3-Asp-Npg-B5-Asp-Asp-Ala-Ala-Phe-Asn-PyrS2-3Thi-BztA-Gln-[4MePipBz]Lys-NH2] |  | 
 | 8 nM | 28400 nM | 1.93 | 44 µM (≈ 99 µg/mL) |  | CC(=O)N1CCC[C@]12CC=CCCCC1(CCCC=CCCCOC(=O)N3CC[C@@](C(=O)N[C@@H](Cc4ccsc4)C(=O)N[C@@H](Cc4csc5ccccc45)C(=O)N[C@@H](CCC(N)=O)C(=O)N[C@@H](CCCCNC(=O)c4ccc(CN5CCOCC5)cc4)C(N)=O)(C3)NC(=O)[C@H](CC(N)=O)NC(=O)[C@H](Cc3ccccc3)NC(=O)[C@H](C)NC(=O)[C@H](C)NC(=O)[C@H](CC(=O)O)NC(=O)[C@H](CC(=O)O)NC1=O)NC(=O)[C@H](CC(C)(C)C)NC(=O)[C@H](CC(=O)O)NC2=O (stereo partly drawn) [I-909, Ac-PL3-Asp-Npg-B5-Asp-Asp-Ala-Ala-Phe-Asn-PyrS2-3Thi-BztA-Gln-[MeMorphBz]Lys-NH2] |  | 

Structure (SMILES) | solubility at 15 min (Solubility in PBS; Solubility (uM)) | IC50 [1] | IC50 ([2]; read-out: NanoBRET Abs IC50) | chromatographic logD (CHI Log D procedure; pH 7.4, CHI Log D) | Solubility (Solubility in PBS; Solubility (uM)) | IC50 ([2]; read-out: NanoBRET IC50) | Solubility (Solubility in PBS) | chromatographic logD (CHI Log D procedure; pH 7.4)
CC(=O)N1CCC[C@]12CC=CCCCC1(CCCC=CCCCOC(=O)N3CC[C@@](C(=O)N[C@@H](Cc4ccsc4)C(=O)N[C@@H](Cc4csc5ccccc45)C(=O)N[C@@H](CCC(N)=O)C(=O)N[C@@H](CCCCNC(=O)C(C)(c4ccccc4)c4ccccc4)C(N)=O)(C3)NC(=O)[C@H](CC(N)=O)NC(=O)[C@H](Cc3ccccc3)NC(=O)[C@H](C)NC(=O)[C@H](C)NC(=O)[C@H](CC(=O)O)NC(=O)[C@H](CC(=O)O)NC1=O)NC(=O)[C@H](CC(C)(C)C)NC(=O)[C@H](CC(=O)O)NC2=O (stereo partly drawn) [I-904, Ac-PL3-Asp-Npg-B5-Asp-Asp-Ala-Ala-Phe-Asn-PyrS2-3Thi-BztA-Gln-[22PhPr]Lys-NH2] |  | 54 nM | 20000 nM |  |  |  | 30 µM (≈ 67.6 µg/mL) | 2.65
